Measurements reported in patent publication US20140343095A1, “Methods of Diagnosing and Treating Multiple Sclerosis” (The Brigham and Women's Hospital, Inc., priority 2009, published 2014).

System: microglia, macrophages or astrocytes
Experiment: TNF-α, CCL-2 and NO secretion by microglia, macrophages or astrocytes
Type: cell-based, mouse
Details: microglia, macrophages or astrocytes incubated with 15-HC
Experimental: FIGS. 4A-D show the results of activation of microglia, macrophages and astrocytes by 15-HC. 4A, a bar graph showing PARP-1 activity in a cell-free system where recombinant PARP-1 was incubated with DNA which as been pretreated with 15-HC or 7-KC. Non-pretreated DNA was used as a negative control and ssb-DNA as a positive control. Data is shown as Mean±SEM. 4B, a pair of bar graphs showing PARP-1 activity measured in microglia, macrophages or astrocytes incubated with 15-HC or 7-KC. The data is shown as the fold of change between vehicle and lipid-treated cells (Mean±SEM). 4C, a pair of bar graphs showing percent inhibition of PARP-1 activity in microglia, macrophages or astrocytes activated with 15-HC or 7-KC […] in the presence of 5-AIQ. 4D, a table showing levels of TNF-α, CCL-2 and NO secretion by 15-HC or 7-KC treated microglia, macrophages or astrocytes (Mean±SEM).
The effect of 15-HC on the activity of cellular PARP-1 was then investigated. […] Thus, 15-HC activates microglia, macrophages and astrocytes through a PARP-1-dependent mechanism.

Substance: 15-hydroxycholestene [15-HC]
- secretion of NO, CCL-2 and TNF-α: resulted in the secretion
